Tested on: Saccharomyces cerevisiae BY4743
Assay: 24 hour survival (CFU) at low and high cell density
Format: cell-based
Procedure: Saccharomyces cerevisiae BY4743 (ATCC 201390) was plated from a freezer vial onto YPD agar (Teknova, Hollister, Calif.; Cat. #Y1000) and incubated overnight at 30° C. Cells from the YPD plate were inoculated into a 25 ml pre-culture of YPD broth (Teknova; Cat. #Y5000) with an initial OD600 of 0.06 to 0.08. The pre-culture was grown for 7 hours in an aerobic shaker at 30° C. An aliquot of the pre-culture was inoculated into 200 ml of YPD broth, with an initial OD600 of 0.06 to 0.08, and this culture was incubated with aeration at 30° C. for approximately 17 hours. The optical density of the culture was measured, the culture was centrifuged and the cells were resuspended to yield an OD600 of 5 in fresh YPD broth. This is referred to as a high cell density (HCD) culture. […] This is referred to as a low the cell density (LCD) culture. These cultures were incubated at 30° C. with shaking for 30 minutes for an acclimation period. At the end of the 30 minute acclimation period, the OD600 was measured. 5 ml of low or high cell density culture was dispensed to 15 ml conical tubes which contained different concentrations of the alcohol to be tested. A control tube included no alcohol. The tubes were placed in a rotary drum at 30° C. and incubated for 24 hours. The time of addition of cells was referred to as “time 0”. […] Colony forming units (CFUs) were determined on YPD plates at time 0 for the control and at 24 hours for each of the cultures, including the control culture, using standard microbiological methods. […] Colonies were counted after 48 hours, and CFUs/ml were calculated. At time 0, the low cell density cultures had about 4.8×10^5 CFUs/ml, and the high cell density cultures had about 5.4×10^7 CFUs/ml.

SMILES: CC(C)CO [Isobutanol, isobutanol]
- Percent Survival HCD (%) (1.0% (w/v) alcohol, high cell density OD600 5): 77.8%
- Percent Survival LCD (%) (1.0% (w/v) alcohol, low cell density OD600 0.05): 0.6%
- Percent Survival HCD (%) (1.5% (w/v) alcohol, high cell density): 45.1%
- Percent Survival LCD (%) (1.5% (w/v) alcohol, low cell density): 0.1%
- Percent Survival HCD (%) (2.5% (w/v) alcohol, high cell density): <0.001%
- Percent Survival LCD (%) (2.5% (w/v) alcohol, low cell density): <0.001%
